Assay results taken from publication PMC10340592, “Extraction Efficiency and Alpha-Glucosidase Inhibitory Activities of Green Tea Catechins by Different Infusion Methods” (Foods, 2023).

Tests used:
[1] = biological target: rat alpha-glucosidase; assay: Inhibitory activity on rat alpha-glucosidase (rat intestinal acetone powder enzyme, maltose substrate, glucose read-out); format: biochemical; settings: mean ± SD
Description: Inhibitory activity on rat alpha-glucosidase was measured as described previously with some modification. Rat alpha-glucosidase protein solution was extracted from rat intestinal acetone powders using the ultrasonication method. Briefly, 100 mg of intestinal acetone powders from rats were added to 1.0 mL of a 0.1 M maleic acid/disodium maleate buffer solution at pH 6.0. Then, one cycle of 30 s of ultrasonication and 30 s of break were repeated 6 times in ice-cold water, and the residue was separated by centrifugation (3000 rpm, 30 min, 4 °C). The supernatant was collected as the enzyme solution for experiments. Then, 50 µL of 4% maltose (w/v) and 25 µL of sample solution (GTEs or catechins) were added to a microtube and preincubated at 37 °C for 3 min. After that, 25 µL of the above enzyme solution was added and incubated at 37 °C for 30 min. Consequently, 400 µL of ultrapure water was added and inactivated at 100 °C for 4 min. After 100 µL of the inactivated reaction solution and 150 µL of color reagent (LabAssay™ Glucose kit) were mixed, the glucose contents (mg/dL) were measured at 505 nm through the spectrometer (Infinite 200 Pro MPlex, Tecan Ltd., Männedorf, Switzerland) according to the manufacturer’s instructions with the standard glucose curve. […] The inhibitory activity of each sample was calculated as follows:Inhibitory activity (%) = 100 − {(Cs − Csb)/(Cc − Cb)} × 100 • Cc: Glucose content of the negative control; • Cb: Glucose content of the blank; • Cs: Glucose content of the sample; • Csb: Glucose content of the sample blank.

[2] = biological target: T1, human alpha-glucosidase (Homo sapiens, UniProt P14410); assay: Inhibitory activity on human alpha-glucosidase in differentiated Caco-2 cells (maltose substrate); format: cell-based; settings: mean ± SD
T1 construct: cultured for 14 days to differentiate into small intestinal epithelial-like cells; host or cells: differentiated Caco-2 cells
T1 sequence (P14410 whole entry): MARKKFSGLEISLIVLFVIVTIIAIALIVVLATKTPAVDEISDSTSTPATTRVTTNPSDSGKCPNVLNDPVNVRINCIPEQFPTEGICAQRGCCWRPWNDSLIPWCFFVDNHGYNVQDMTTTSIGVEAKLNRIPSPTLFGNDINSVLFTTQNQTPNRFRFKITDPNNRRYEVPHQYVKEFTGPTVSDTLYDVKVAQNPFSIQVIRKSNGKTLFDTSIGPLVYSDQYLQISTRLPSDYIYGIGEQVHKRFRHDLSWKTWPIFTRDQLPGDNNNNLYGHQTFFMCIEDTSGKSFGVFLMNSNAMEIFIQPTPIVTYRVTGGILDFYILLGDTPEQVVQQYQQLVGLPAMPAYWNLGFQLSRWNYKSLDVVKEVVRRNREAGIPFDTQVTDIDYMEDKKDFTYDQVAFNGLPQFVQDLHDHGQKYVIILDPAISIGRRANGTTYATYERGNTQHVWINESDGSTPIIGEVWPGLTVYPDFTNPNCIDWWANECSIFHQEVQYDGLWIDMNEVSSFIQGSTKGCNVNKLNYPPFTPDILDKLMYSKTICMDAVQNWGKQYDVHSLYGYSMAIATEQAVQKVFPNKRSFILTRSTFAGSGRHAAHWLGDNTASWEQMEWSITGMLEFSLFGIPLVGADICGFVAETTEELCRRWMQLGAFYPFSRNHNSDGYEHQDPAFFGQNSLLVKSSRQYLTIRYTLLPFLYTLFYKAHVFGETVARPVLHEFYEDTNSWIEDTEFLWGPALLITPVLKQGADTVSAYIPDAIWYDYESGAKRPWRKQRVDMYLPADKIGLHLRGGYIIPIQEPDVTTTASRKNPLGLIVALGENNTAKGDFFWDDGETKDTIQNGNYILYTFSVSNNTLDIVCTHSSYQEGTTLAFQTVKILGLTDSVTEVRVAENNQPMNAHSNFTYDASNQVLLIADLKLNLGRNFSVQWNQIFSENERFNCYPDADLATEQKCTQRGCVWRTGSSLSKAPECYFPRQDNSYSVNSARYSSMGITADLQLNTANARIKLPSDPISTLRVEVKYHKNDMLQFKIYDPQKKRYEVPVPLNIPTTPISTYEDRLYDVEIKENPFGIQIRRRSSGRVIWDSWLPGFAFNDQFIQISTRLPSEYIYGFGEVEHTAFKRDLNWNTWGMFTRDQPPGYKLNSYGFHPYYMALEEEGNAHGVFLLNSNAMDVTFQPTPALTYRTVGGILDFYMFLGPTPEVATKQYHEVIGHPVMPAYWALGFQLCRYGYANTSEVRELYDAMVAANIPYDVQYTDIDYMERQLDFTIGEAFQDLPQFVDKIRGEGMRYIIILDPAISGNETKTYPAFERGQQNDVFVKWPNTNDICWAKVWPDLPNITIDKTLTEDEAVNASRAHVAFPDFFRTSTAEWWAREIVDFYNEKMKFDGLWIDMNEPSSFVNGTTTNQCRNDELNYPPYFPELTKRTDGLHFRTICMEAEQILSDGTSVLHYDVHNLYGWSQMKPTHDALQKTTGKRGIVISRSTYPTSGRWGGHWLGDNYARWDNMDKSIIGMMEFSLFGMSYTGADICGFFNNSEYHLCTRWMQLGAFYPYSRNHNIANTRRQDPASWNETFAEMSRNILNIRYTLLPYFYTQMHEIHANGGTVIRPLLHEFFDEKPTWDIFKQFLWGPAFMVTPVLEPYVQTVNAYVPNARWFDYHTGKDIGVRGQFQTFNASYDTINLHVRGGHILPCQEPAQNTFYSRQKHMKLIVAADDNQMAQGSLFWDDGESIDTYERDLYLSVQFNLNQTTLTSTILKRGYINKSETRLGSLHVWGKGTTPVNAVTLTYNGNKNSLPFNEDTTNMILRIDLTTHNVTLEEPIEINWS
Description: Inhibitory activity on human alpha-glucosidase was measured using differentiated Caco-2 cells as described previously with some modification. Briefly, Caco-2 cells were purchased from Riken Bioresource Research Center (Tsukuba, Japan) and cultured in Minimal Essential Medium (MEM) supplemented with 20% fetal bovine serum, 1% penicillin-streptomycin-glutamine, and 1% non-essential amino acids at 37 °C in an atmosphere of 5% CO2. After passaging, cells (2.0 × 10^4 cells/well) were seeded in 48-well plates and cultured for 14 days to differentiate into small intestinal epithelial-like cells. After 14 days, cells were washed twice with PBS, and 150 µL of sample solution at each concentration as well as 150 µL of 3 mM maltose were added. Each sample and maltose solution were dissolved in PBS. The cells were further incubated for 2 h at 37 °C in an atmosphere of 5% CO2. Then, 100 µL of cell culture supernatant was mixed with 150 µL of color reagent and measured at 505 nm through the spectrometer (Infinite 200 Pro MPlex, Tecan Ltd., Männedorf, Switzerland). The inhibitory activity of the sample was calculated in the same way as in the rat alpha-glucosidase experiment.

SMILES | IC50 [1] [µM] | IC50 [2] [µM]
Oc1cc(O)c2c(c1)O[C@H](c1ccc(O)c(O)c1)[C@@H](O)C2 [(+)C, (+)-catechin] | 1200 ± 79.6 | 
O=C(O[C@@H]1Cc2c(O)cc(O)cc2O[C@H]1c1ccc(O)c(O)c1)c1cc(O)c(O)c(O)c1 [Cg, (−)-catechin-3-gallate] | 112 ± 7.8 | 
Oc1cc(O)c2c(c1)O[C@H](c1ccc(O)c(O)c1)[C@H](O)C2 [EC, (−)-epicatechin] | 675 ± 15.7 | 134 ± 2.2
Oc1cc(O)c2c(c1)O[C@H](c1cc(O)c(O)c(O)c1)[C@H](O)C2 [EGC, (−)-epigallocatechin] | 713 ± 35.3 | 214 ± 3.8
O=C(O)c1cc(O)c(O)c(O)c1 [GA, gallic acid, reference compound] | 1030 ± 64.5 | 
Oc1cc(O)c2c(c1)O[C@@H](c1cc(O)c(O)c(O)c1)[C@H](O)C2 [GC, (−)-gallocatechin] | 798 ± 26.8 | 
O=C(O[C@@H]1Cc2c(O)cc(O)cc2O[C@H]1c1cc(O)c(O)c(O)c1)c1cc(O)c(O)c(O)c1 [GCg, (−)-gallocatechin-3-gallate] | 161 ± 2.4 | 

Stronger by IC50 [1], values ahead:

IC50 [1] [µM] | IC50 [2] [µM] | SMILES
96.9 ± 4.5 | 78.4 ± 15.2 | O=C(O[C@@H]1Cc2c(O)cc(O)cc2O[C@@H]1c1ccc(O)c(O)c1)c1cc(O)c(O)c(O)c1 [ECg, (−)-epicatechin-3-gallate]
46 ± 3.73 | 90.7 ± 15.8 | O=C(O[C@@H]1Cc2c(O)cc(O)cc2O[C@@H]1c1cc(O)c(O)c(O)c1)c1cc(O)c(O)c(O)c1 [EGCg, (−)-epigallocatechin-3-gallate]
2.17 ± 0.23 |  | C[C@H]1O[C@H](O[C@H]2[C@H](O)[C@@H](O)[C@@H](O[C@H]3[C@H](O)[C@@H](O)C(O)O[C@@H]3CO)O[C@@H]2CO)[C@H](O)[C@@H](O)[C@@H]1N[C@H]1C=C(CO)[C@@H](O)[C@H](O)[C@H]1O (some centres unmarked) [acarbose, reference compound]
